As usually defined, the IC50 is the point on the concentration scale where inhibition reaches its midpoint.

Starred links: 1 amine or outer side, 2 acyl side, 3 side chain; linkers in the order of their positions; H or OH if unused. Positions of bridges follow the written chain, without caps; N, C: chain ends. Non-standard residues stand in square brackets, D forms with d. Residues, ends and D or L forms follow the SMILES beside them. *: point of attachment. hPhe(3-Cl-4-CF3) = N[C@@H](CCc1ccc(C(F)(F)F)c(Cl)c1)C(=O)O; hPhe(4-CF3) = N[C@@H](CCc1ccc(C(F)(F)F)cc1)C(=O)O; NMePhe(3-Cl) = CN[C@@H](Cc1cccc(Cl)c1)C(=O)O; NMePhe(4-Cl) = CN[C@@H](Cc1ccc(Cl)cc1)C(=O)O; NMedβ3hAla = C[C@H](CC(=O)[*:2])N(C)[*:1]; NMePhe(2-F) = CN[C@@H](Cc1ccccc1F)C(=O)O; NMeGly(cPent) = CN[C@H](C(=O)O)C1CCCC1; NMeCha = CN[C@@H](CC1CCCCC1)C(=O)O; Azetidine(3,3-F2) = FC1(F)CN(*)C1; NMeCba = CN[C@@H](CC1CCC1)C(=O)O; NMeF = CN[C@@H](Cc1ccccc1)C(=O)O; NMeD = CN[C@@H](CC(=O)O)C(=O)O; CH2CONHtBu = CC(C)(C)NC(=O)C*; NMeL = CN[C@@H](CC(C)C)C(=O)O; NMeV = CN[C@H](C(=O)O)C(C)C; d(β3hA) = C[C@@H](N)CC(=O)O; NMeA = CN[C@@H](C)C(=O)O; NMeAib = CNC(C)(C)C(=O)O; Pyrrolidide = C1CCN(*)C1; dNMeA = CN[C@H](C)C(=O)O; Ac5c = NC1(C(=O)O)CCCC1; Aze = O=C(O)[C@@H]1CCN1; Sar = CNCC(=O)O; Propyl = CCC*

In US12371454B2, “Cyclic peptide compound having Kras inhibitory action” (priority 2019, dated 2025) one finds IC50 data, which are given here for nine compounds.

In the experiment the target is T1, Kras and SOS1 (biotin-tagged human Kras loaded with GDP, His-tagged human SOS1) (Homo sapiens, UniProt P01116, G12D).
T1 construct: made in house; host or cells: E. coli (stated for Kras only)
T1 sequence (P01116 1-188 isoform P01116-2 G12D): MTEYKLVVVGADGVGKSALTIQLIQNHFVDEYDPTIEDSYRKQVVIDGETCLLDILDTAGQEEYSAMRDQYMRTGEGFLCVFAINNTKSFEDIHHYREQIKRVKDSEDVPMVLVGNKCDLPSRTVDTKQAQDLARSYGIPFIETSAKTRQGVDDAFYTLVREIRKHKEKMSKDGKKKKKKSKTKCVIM
Nature of the experiment: Protein-protein interaction inhibition between Kras and SOS1 (KrasGl2D-SOS PPI) using AlphaScreen. The format is binding. To be noted: AlphaScreen; biotin-tagged human Kras loaded with GDP, His-tagged human SOS1; read-out: KRAS G12D-SOS PPI IC50. On the procedure: Protein-Protein Interaction Inhibition Between Kras and SOS1 (KrasGl2D-SOS PPI) Using AlphaScreen
Protein-protein interaction inhibition (PPI) between Kras and SOS1 was measured by energy transfer from nickel-conjugated donor beads to streptavidin-conjugated acceptor beads using biotin-tagged human Kras expressed in E. coli and loaded with GDP after purification and His-tagged human SOS1 enzyme. This measurement utilizes the phenomenon in which donor beads are irradiated with light at 680 nm, such that energy is transferred to acceptor beads through singlet oxygen and light at 520-620 nm is detected from the acceptor beads.
Inhibition of binding between K-ras and SOS1 is known to inhibit signaling downstream of Kras.
Turning to `CC[C@H](C)[C@@H]1NC(=O)[C@H](CC2CCCCC2)N(C)C(=O)C[C@@H](C)NC(=O)[C@H](C(C)C)N(C)C(=O)C2(CCCC2)NC(=O)[C@@H]2CCCN2C(=O)[C@H](CCc2ccc(C(F)(F)F)c(Cl)c2)NC(=O)CN(C)C(=O)[C@H](CC2CCCCC2)N(C)C(=O)[C@@H]2CCN2C(=O)[C@H](C)N(C)C1=O` [Compound 38] (cyclo([Ac5c][NMeV][d(β3hA)][NMeCha]I[NMeA][Aze][NMeCha][Sar][hPhe(3-Cl-4-CF3)]P)), the IC50 worked out at 160 nM.
For `CCCOC[C@@H]1NC(=O)[C@H](CC(=O)N2CC(F)(F)C2)N(C)C(=O)[C@H](CCc2ccc(C(F)(F)F)c(Cl)c2)NC(=O)CN(C)C(=O)[C@H](CC2CCCCC2)N(C)C(=O)[C@@H]2CCN2C(=O)[C@H](C)N(C)C(=O)[C@H]([C@@H](C)CC)NC(=O)[C@H](CC(C)C)N(C)C(=O)C[C@@H](C(=O)N(C)C)N(C)C(=O)[C@H](C2CCCC2)N(C)C1=O` [Compound 41] ([NMeL]I[NMeA][Aze][NMeCha][Sar][hPhe(3-Cl-4-CF3)][NMeD](Azetidine(3,3-F2))S(Propyl)[NMeGly(cPent)][NMeD]-NMe2; lactam N-11), the IC50 worked out at 11 nM.
With `CC[C@H](C)[C@@H]1NC(=O)[C@H](C)N(C)C(=O)C[C@@H](C)NC(=O)[C@H](C2CCCC2)N(C)C(=O)C2(CCCC2)NC(=O)[C@@H]2CCCN2C(=O)[C@H](CCc2ccc(C(F)(F)F)c(Cl)c2)NC(=O)[C@@H](C)N(C)C(=O)[C@H](Cc2cccc(Cl)c2)N(C)C(=O)[C@@H]2CCN2C(=O)[C@H](C)N(C)C1=O` [Compound 42] (cyclo([Ac5c][NMeGly(cPent)][d(β3hA)][NMeA]I[NMeA][Aze][NMePhe(3-Cl)][dNMeA][hPhe(3-Cl-4-CF3)]P)), the concentration for half-maximal inhibition (IC50) turned out to be 190 nM.
To `CC[C@H](C)[C@@H]1NC(=O)[C@H](CC(C)C)N(C)C(=O)C[C@@H](C(=O)N(C)C)N(C)C(=O)[C@H](C2CCCC2)N(C)C(=O)C2(CCCC2)NC(=O)[C@H](Cc2ccccc2F)N(C)C(=O)[C@H](CCc2ccc(C(F)(F)F)c(Cl)c2)NC(=O)CN(C)C(=O)[C@H](CC2CCCCC2)N(C)C(=O)[C@@H]2CCN2C(=O)[C@H](C)N(C)C1=O` [Compound 43] ([NMeL]I[NMeA][Aze][NMeCha][Sar][hPhe(3-Cl-4-CF3)][NMePhe(2-F)][Ac5c][NMeGly(cPent)][NMeD]-NMe2; lactam N-11) belongs 31 nM; to `CC[C@H](C)[C@@H]1NC(=O)[C@H](C)N(C)C(=O)C[C@@H](C(=O)N2CCCC2)NC(=O)[C@H](CC(C)C)N(C)C(=O)[C@H](CC(C)C)N(C)C(=O)[C@H](CC(C)C)NC(=O)[C@H](CCc2ccc(C(F)(F)F)cc2)NC(=O)CN(C)C(=O)[C@H](Cc2ccc(Cl)cc2)N(C)C(=O)CN(C)C(=O)CN(C)C1=O` [Compound 46] ([NMeA]I[Sar][Sar][NMePhe(4-Cl)][Sar][hPhe(4-CF3)]L[NMeL][NMeL]D-Pyrrolidide; lactam N-11), 120 nM; to `CC[C@H](C)[C@@H]1NC(=O)[C@H](C)N(C)C(=O)C[C@@H](C(=O)N2CCCC2)NC(=O)[C@H](CC(C)C)N(C)C(=O)[C@H](Cc2ccccc2)N(C)C(=O)[C@H](CC(C)C)NC(=O)[C@H](CCc2ccc(C(F)(F)F)cc2)NC(=O)CN(C)C(=O)[C@H](Cc2ccc(Cl)cc2)N(C)C(=O)CN(C)C(=O)CN(C)C1=O` [Compound 50] ([NMeA]I[Sar][Sar][NMePhe(4-Cl)][Sar][hPhe(4-CF3)]L[NMeF][NMeL]D-Pyrrolidide; lactam N-11), 28 nM.
With `CC[C@H](C)[C@@H]1NC(=O)[C@H](C)N(C)C(=O)C[C@@H](C(=O)N2CCCC2)NC(=O)[C@H](CC(C)C)N(C)C(=O)[C@H](COCC(=O)NC(C)(C)C)NC(=O)[C@H](CC(C)C)NC(=O)[C@H](CCc2ccc(C(F)(F)F)cc2)NC(=O)CN(C)C(=O)[C@H](Cc2ccc(Cl)cc2)N(C)C(=O)CN(C)C(=O)CN(C)C1=O` [Compound 53] ([NMeA]I[Sar][Sar][NMePhe(4-Cl)][Sar][hPhe(4-CF3)]LS(CH2CONHtBu)[NMeL]D-Pyrrolidide; lactam N-11), the IC50 came to 120 nM.
Under `CC[C@H](C)[C@@H]1NC(=O)[C@H](CC(C)C)N(C)C(=O)C[C@@H](C)N(C)C(=O)[C@H](CC(C)C)NC(=O)C(C)(C)N(C)C(=O)[C@H](CC(C)C)NC(=O)[C@H](CCc2ccc(C(F)(F)F)c(Cl)c2)NC(=O)CN(C)C(=O)[C@H](CC2CCCCC2)N(C)C(=O)[C@@H]2CCN2C(=O)CN(C)C1=O` [Compound 57] (cyclo([Aze][NMeCha][Sar][hPhe(3-Cl-4-CF3)]L[NMeAib]L[NMedβ3hAla][NMeL]I[Sar])) stands 16 nM; under `CC[C@H](C)[C@@H]1NC(=O)[C@H](CC(C)C)N(C)C(=O)C[C@@H](C)NC(=O)[C@H](CC2CCC2)N(C)C(=O)C2(CCCC2)NC(=O)[C@@H]2CCCN2C(=O)[C@H](CCc2ccc(C(F)(F)F)c(Cl)c2)NC(=O)CN(C)C(=O)[C@H](CC2CCCCC2)N(C)C(=O)CN(C)C(=O)CN(C)C1=O` [Compound 59] (cyclo([Ac5c][NMeCba][d(β3hA)][NMeL]I[Sar][Sar][NMeCha][Sar][hPhe(3-Cl-4-CF3)]P)), 36 nM.
